Each compound was assayed against TrkA (Homo sapiens (Human), UniProt P04629) (assay: TrkA Omnia Assay). Settings: averaged IC50; 20 nM enzyme, 500 μM ATP, 10 μM peptide substrate.
Assay type: biochemical
Procedure, shortened: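 Continuous fluorescent kinase read-out (ex 360 nm, em 485 nm) over 70 min, with initial rates fitted to 4- or 5-parameter logistic curves for IC50. Final conditions: 500 μM ATP, 10 μM Omnia Tyr Peptide #4, 20 nM TrkA, MOPS pH 7.5 buffer with MgCl2 and Triton X-100; enzyme and compound preincubated 10 min at ambient temperature.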

TrkA, sequence (P04629 33-796): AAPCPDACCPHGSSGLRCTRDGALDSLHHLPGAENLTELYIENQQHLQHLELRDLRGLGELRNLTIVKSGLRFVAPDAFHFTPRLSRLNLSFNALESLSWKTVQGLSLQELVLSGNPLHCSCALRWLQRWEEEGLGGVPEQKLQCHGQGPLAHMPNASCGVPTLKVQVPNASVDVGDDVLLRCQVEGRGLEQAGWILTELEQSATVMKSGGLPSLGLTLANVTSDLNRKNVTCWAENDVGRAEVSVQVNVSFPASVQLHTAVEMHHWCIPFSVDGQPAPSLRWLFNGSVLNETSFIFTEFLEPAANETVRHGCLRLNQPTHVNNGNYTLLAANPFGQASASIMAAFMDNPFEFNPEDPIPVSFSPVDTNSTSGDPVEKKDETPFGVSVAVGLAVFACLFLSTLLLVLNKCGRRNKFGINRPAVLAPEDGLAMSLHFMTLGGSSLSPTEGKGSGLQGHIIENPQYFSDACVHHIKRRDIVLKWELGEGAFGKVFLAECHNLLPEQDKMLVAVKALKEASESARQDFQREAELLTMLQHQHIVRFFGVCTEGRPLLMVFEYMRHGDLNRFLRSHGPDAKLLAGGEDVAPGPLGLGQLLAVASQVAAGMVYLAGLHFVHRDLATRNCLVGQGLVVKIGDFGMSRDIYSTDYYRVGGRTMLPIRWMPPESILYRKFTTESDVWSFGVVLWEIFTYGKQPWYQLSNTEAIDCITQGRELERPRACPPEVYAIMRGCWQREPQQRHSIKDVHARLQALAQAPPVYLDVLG

IC50 [nM]	SMILES
< 100	COCCN1C[C@@H](NC(=O)Nc2c(C)c(Br)nn2-c2ccccc2)[C@H](c2ccc(F)c(F)c2)C1 [Example 352, 1-(3-bromo-4-methyl-1-phenyl-1H-pyrazol-5-yl)-3-((3S,4R)-4-(3,4-difluorophenyl)-1-(2-methoxyethyl)pyrrolidin-3-yl)urea]
100 to 1000	COCCN1C[C@@H](NC(=O)Nc2c3c(nn2-c2ccccc2)C(=O)N(C)C3)[C@H](c2ccc(F)c(F)c2)C1 [Example 353, 1-((3S,4R)-4-(3,4-difluorophenyl)-1-(2-methoxyethyl)pyrrolidin-3-yl)-3-(5-methyl-6-oxo-2-phenyl-2,4,5,6-tetrahydropyrrolo[3,4-c]pyrazol-3-yl)urea]
< 100	COCCN1C[C@@H](NC(=O)Nc2c(C)c(OCc3nnc(C)o3)nn2-c2ccccc2)[C@H](c2ccc(F)c(F)c2)C1 [Example 355, 1-((3S,4R)-4-(3,4-difluorophenyl)-1-(2-methoxyethyl)pyrrolidin-3-yl)-3-(4-methyl-3-((5-methyl-1,3,4-oxadiazol-2-yl)methoxy)-1-phenyl-1H-pyrazol-5-yl)urea]
< 100	CCOc1nn(-c2ccccc2)c(NC(=O)N[C@@H]2CN(CCOC)C[C@H]2c2ccc(F)c(F)c2)c1Cl [Example 356, 1-(4-chloro-3-ethoxy-1-phenyl-1H-pyrazol-5-yl)-3-((3S,4R)-4-(3,4-difluorophenyl)-1-(2-methoxyethyl)pyrrolidin-3-yl)urea]
< 100	CCOc1nn(-c2ccccc2)c(NC(=O)N[C@@H]2CN(CCOC)C[C@H]2c2ccc(F)c(F)c2)c1F [Example 357, 1-((3S,4R)-4-(3,4-difluorophenyl)-1-(2-methoxyethyl)pyrrolidin-3-yl)-3-(3-ethoxy-4-fluoro-1-phenyl-1H-pyrazol-5-yl)urea]
< 100	COCCN1C[C@@H](NC(=O)Nc2c(Br)c(OCC(C)(C)O)nn2-c2ccccc2)[C@H](c2ccc(F)c(F)c2)C1 [Example 358, 1-(4-bromo-3-(2-hydroxy-2-methylpropoxy)-1-phenyl-1H-pyrazol-5-yl)-3-((3S,4R)-4-(3,4-difluorophenyl)-1-(2-methoxyethyl)pyrrolidin-3-yl)urea]
< 100	COCCN1C[C@@H](NC(=O)Nc2c(Cl)c(OCC(C)(C)O)nn2-c2ccccc2)[C@H](c2ccc(F)c(F)c2)C1 [Example 359, 1-(4-chloro-3-(2-hydroxy-2-methylpropoxy)-1-phenyl-1H-pyrazol-5-yl)-3-((3S,4R)-4-(3,4-difluorophenyl)-1-(2-methoxyethyl)pyrrolidin-3-yl)urea]
< 100	CCOC(=O)COc1nn(-c2ccccc2)c(NC(=O)N[C@@H]2CN(CCOC)C[C@H]2c2ccc(F)c(F)c2)c1C [Example 361, ethyl 2-((5-(3-((3S,4R)-4-(3,4-difluorophenyl)-1-(2-methoxyethyl)pyrrolidin-3-yl)ureido)-4-methyl-1-phenyl-1H-pyrazol-3-yl)oxy)acetate]
< 100	COCCN1C[C@@H](NC(=O)Nc2c(C)c(OCC(C)(C)O)nn2-c2ccccc2)[C@H](c2ccc(F)cc2)C1 [Example 362, 1-((3S,4R)-4-(4-fluorophenyl)-1-(2-methoxyethyl)pyrrolidin-3-yl)-3-(3-(2-hydroxy-2-methylpropoxy)-4-methyl-1-phenyl-1H-pyrazol-5-yl)urea]
< 100	COCCN1C[C@@H](NC(=O)Nc2c(C)c(OC[C@@H](C)O)nn2-c2ccccc2)[C@H](c2ccc(F)cc2)C1 [Example 364, 1-((3S,4R)-4-(4-fluorophenyl)-1-(2-methoxyethyl)pyrrolidin-3-yl)-3-(3-((R)-2-hydroxypropoxy)-4-methyl-1-phenyl-1H-pyrazol-5-yl)urea]
< 100	COCCN1C[C@@H](NC(=O)Nc2c(C)c(OC[C@@H](C)O)nn2-c2ccccc2)[C@H](c2ccc(F)c(F)c2)C1 [Example 365, 1-((3S,4R)-4-(3,4-difluorophenyl)-1-(2-methoxyethyl)pyrrolidin-3-yl)-3-(3-((R)-2-hydroxypropoxy)-4-methyl-1-phenyl-1H-pyrazol-5-yl)urea]
< 100	COCCN1C[C@@H](NC(=O)Nc2c(C)c(OC[C@@H](C)O)nn2-c2ccccc2)[C@H](c2cc(F)cc(F)c2)C1 [Example 366, 1-((3S,4R)-4-(3,5-difluorophenyl)-1-(2-methoxyethyl)pyrrolidin-3-yl)-3-(3-((R)-2-hydroxypropoxy)-4-methyl-1-phenyl-1H-pyrazol-5-yl)urea]
< 100	COCCN1C[C@@H](NC(=O)Nc2c(C)c(OC[C@@H](O)C(F)(F)F)nn2-c2ccccc2)[C@H](c2cc(F)cc(F)c2)C1 [Example 367, 1-((3S,4R)-4-(3,5-difluorophenyl)-1-(2-methoxyethyl)pyrrolidin-3-yl)-3-(4-methyl-1-phenyl-3-((R)-3,3,3-trifluoro-2-hydroxypropoxy)-1H-pyrazol-5-yl)urea]
< 100	COCCN1C[C@@H](NC(=O)Nc2c(C)c(OC[C@H](C)O)nn2-c2ccccc2)[C@H](c2ccc(F)cc2)C1 [Example 368, 1-((3S,4R)-4-(4-fluorophenyl)-1-(2-methoxyethyl)pyrrolidin-3-yl)-3-(3-((S)-2-hydroxypropoxy)-4-methyl-1-phenyl-1H-pyrazol-5-yl)urea]
< 100	COCCN1C[C@@H](NC(=O)Nc2c(C)c(OC[C@H](O)C(F)(F)F)nn2-c2ccccc2)[C@H](c2cc(F)cc(F)c2)C1 [Example 369, 1-((3S,4R)-4-(3,5-difluorophenyl)-1-(2-methoxyethyl)pyrrolidin-3-yl)-3-(4-methyl-1-phenyl-3-((S)-3,3,3-trifluoro-2-hydroxypropoxy)-1H-pyrazol-5-yl)urea]
< 100	COCCN1C[C@@H](NC(=O)Nc2c(Cl)c(OCC(C)(C)O)nn2-c2ccccc2)[C@H](c2cc(F)cc(F)c2)C1 [Example 370, 1-(4-chloro-3-(2-hydroxy-2-methylpropoxy)-1-phenyl-1H-pyrazol-5-yl)-3-((3S,4R)-4-(3,5-difluorophenyl)-1-(2-methoxyethyl)pyrrolidin-3-yl)urea]
< 100	COCCN1C[C@@H](NC(=O)Nc2c(Cl)c(OCC(C)(C)O)nn2-c2ccccc2)[C@H](c2ccc(F)cc2)C1 [Example 371, 1-(4-chloro-3-(2-hydroxy-2-methylpropoxy)-1-phenyl-1H-pyrazol-5-yl)-3-((3S,4R)-4-(4-fluorophenyl)-1-(2-methoxyethyl)pyrrolidin-3-yl)urea]
< 100	COCCN1C[C@@H](NC(=O)Nc2c(Cl)c(OC[C@@H](C)O)nn2-c2ccccc2)[C@H](c2ccc(F)c(F)c2)C1 [Example 372, 1-(4-chloro-3-((R)-2-hydroxypropoxy)-1-phenyl-1H-pyrazol-5-yl)-3-((3S,4R)-4-(3,4-difluorophenyl)-1-(2-methoxyethyl)pyrrolidin-3-yl)urea]
< 100	COCCN1C[C@@H](NC(=O)Nc2c(Cl)c(OC[C@@H](C)O)nn2-c2ccccc2)[C@H](c2cc(F)cc(F)c2)C1 [Example 373, 1-(4-chloro-3-((R)-2-hydroxypropoxy)-1-phenyl-1H-pyrazol-5-yl)-3-((3S,4R)-4-(3,5-difluorophenyl)-1-(2-methoxyethyl)pyrrolidin-3-yl)urea]
< 100	COCCN1C[C@@H](NC(=O)Nc2c(Cl)c(OC[C@@H](C)O)nn2-c2ccccc2)[C@H](c2ccc(F)cc2)C1 [Example 374, 1-(4-chloro-3-((R)-2-hydroxypropoxy)-1-phenyl-1H-pyrazol-5-yl)-3-((3S,4R)-4-(4-fluorophenyl)-1-(2-methoxyethyl)pyrrolidin-3-yl)urea]
< 100	COCCN1C[C@@H](NC(=O)Nc2c(Br)c(OC[C@@H](C)O)nn2-c2ccccc2)[C@H](c2ccc(F)c(F)c2)C1 [Example 375, 1-(4-bromo-3-((R)-2-hydroxypropoxy)-1-phenyl-1H-pyrazol-5-yl)-3-((3S,4R)-4-(3,4-difluorophenyl)-1-(2-methoxyethyl)pyrrolidin-3-yl)urea]
< 100	COCCN1C[C@@H](NC(=O)Nc2c(Br)c(OC[C@@H](C)O)nn2-c2ccccc2)[C@H](c2cc(F)cc(F)c2)C1 [Example 376, 1-(4-bromo-3-((R)-2-hydroxypropoxy)-1-phenyl-1H-pyrazol-5-yl)-3-((3S,4R)-4-(3,5-difluorophenyl)-1-(2-methoxyethyl)pyrrolidin-3-yl)urea]
< 100	COCCN1C[C@@H](NC(=O)Nc2c(Br)c(OC[C@@H](C)O)nn2-c2ccccc2)[C@H](c2ccc(F)cc2)C1 [Example 377, 1-(4-bromo-3-((R)-2-hydroxypropoxy)-1-phenyl-1H-pyrazol-5-yl)-3-((3S,4R)-4-(4-fluorophenyl)-1-(2-methoxyethyl)pyrrolidin-3-yl)urea]

SMILES	IC50 [nM]
CC[C@H](O)COc1nn(-c2ccccc2)c(NC(=O)N[C@@H]2CN(CCOC)C[C@H]2c2ccc(F)c(F)c2)c1C [Example 360, 1-((3S,4R)-4-(3,4-difluorophenyl)-1-(2-methoxyethyl)pyrrolidin-3-yl)-3-(3-((S)-2-hydroxybutoxy)-4-methyl-1-phenyl-1H-pyrazol-5-yl)urea]	< 100
CC[C@@H](O)COc1nn(-c2ccccc2)c(NC(=O)N[C@@H]2CN(CCOC)C[C@H]2c2cc(F)cc(F)c2)c1C [Example 378, 1-((3S,4R)-4-(3,5-difluorophenyl)-1-(2-methoxyethyl)pyrrolidin-3-yl)-3-(3-((R)-2-hydroxybutoxy)-4-methyl-1-phenyl-1H-pyrazol-5-yl)urea]	< 100
CC[C@@H](O)COc1nn(-c2ccccc2)c(NC(=O)N[C@@H]2CN(CCOC)C[C@H]2c2ccc(F)cc2)c1C [Example 379, 1-((3S,4R)-4-(4-fluorophenyl)-1-(2-methoxyethyl)pyrrolidin-3-yl)-3-(3-((R)-2-hydroxybutoxy)-4-methyl-1-phenyl-1H-pyrazol-5-yl)urea]	< 100
CC[C@@H](O)COc1nn(-c2ccccc2)c(NC(=O)N[C@@H]2CN(CCOC)C[C@H]2c2ccc(F)c(F)c2)c1C [Example 380, 1-((3S,4R)-4-(3,4-difluorophenyl)-1-(2-methoxyethyl)pyrrolidin-3-yl)-3-(3-((R)-2-hydroxybutoxy)-4-methyl-1-phenyl-1H-pyrazol-5-yl)urea]	< 100

Reference: patent publication US10323022B2, “Pyrrolidinyl urea, pyrrolidinyl thiourea and pyrrolidinyl guanidine compounds as TrkA kinase inhibitors” (Array BioPharma Inc., priority 2011, dated 2019)
